Results taken from patent US9637770B2, “Methods and devices for handling biofouling” (MEKOROT WATER COMPANY, LTD., priority 2011, dated 2017).

Key:
[1] = system: biofilm on RO membrane; assay: Biofilm grown on RO membranes for 15 days with input water containing chloramines, measured with CLSM; format: cell-based
Protocol: Biofilm was allowed to grow on the surface of miniature RO membranes (ESNA1-LF, Hydranautics, USA), equipped within a device having the membrane held within a closed chamber, the chamber comprising a feed inlet, brine outlet and permeate outlet for fluids, where the pressure obtain from the desalination pilot pressurized flows.
For biofilm analysis a 5×5 mm membrane segment was taken from each of the tested membranes. Each segment was inserted into an Eppendorf test tube comprising 2 ml 0.24% sterilized TRIS solution (pH 7.2) and the test tubes were turned upside down gently several time. […]
The staining of the RO membranes with SYTO9 and Tetramethylrhodamine, provided information about the presence and quantity of microorganisms and the extracellular polymeric substance (EPS), respectively. The CLSM images were scanned and analyzed with PHLIP software (http://sourceforge.net/projects/phlip/) which enabled quantization of CLSM data with respect to the biovolume of the biofilm. […]
In addition, water from sampling Point No. 3 (SP3) was allowed to flow through miniature membrane facilities (as described above) in parallel, for 15 days in order to allow growth of biofilm on the surface of the membranes. After 15 days, the membranes were treated and analyzed as described above in order to determine the resulting biovolume. […]

[2] = system: microorganisms; assay: Biofouling index on the biosensor after 24 h circulation of water dosed with hypochlorite; format: cell-based
Protocol: The change in color on the biosensor was determined for each water sample in six repetitions as described above.
The biofouling Index was determined as follows: Biofouling Index=100×PPP×(1−PPP)+(100−LL)×PPP
For simplicity, the Biofouling Index was translated into a biofouling score, A, B, C, . . . F, according to ranges of biofouling, with lower biofouling range, representing low biofouling identified as score A. The correlating score is identified in Table 7.
Hypochlorite was dissolved to obtain a stock solution of 140 mg/L. Dilutions of this stock solution were as detailed in Table 9. The dilutions were injected into the water circulating in the biosensing apparatus and the total chlorine concentration was measured for each dilution. As control, no hypochlorite was added.
Circulation conditions: flow: 90 ml/min; circulation container volume: 2 L; duration of circulation: 24 hours at a temperature of 35° C.

[3] = system: biofilm on the membrane surface; assay: Normalized permeate flow of the pilot plant with low dose of chloramines
Protocol: FIG. 7 provides a graph showing the normalized permeate flow as a function of operation time for a pilot plant with low dose of chloramines as determined with the bio-sensor test. Also examined was the effect of preventing the development of biofilm on the membrane surface when 4.2 mg/L hypochlorite were added.

In the case of `OCl` [Sodium hypochlorite, sodium hypochlorite], the “Biovolume of biofilm on the membrane relative to that without hypochlorite” value ([1]; 4.2 mg/L hypochlorite (1.5 mg/L chloramines), injected 4 hours per day, Stage I input water) is reported as “about ⅕”, the “Thickness of biofilm relative to that in the absence of chloramines” value ([1]; hypochlorite added (chloramines)) is reported as “about ⅕” and the “Amount of hypochlorite sufficient to prevent biofouling (close to zero biofouling)” value ([2]; 24 h circulation, 35° C.) is reported as 4.2 mg/L. The “Biofouling index after addition of hypochlorite (drop from control level C)” value ([2]; all tested amounts of hypochlorite, control C, 24 h circulation) was “B (biofouling index <6)”, the Biofouling index ([2]; sodium hypochlorite 0.7 mg/l, total chloramines 0.17 mg/l, 24 h circulation, 35° C.) was “B (biofouling index <6)” and the Biofouling index ([2]; sodium hypochlorite 1.4 mg/l, total chloramines 0.29 mg/l, 24 h circulation, 35° C.) was “B (biofouling index <6)”. The Biofouling index ([2]; sodium hypochlorite 2.1 mg/l, total chloramines 0.45 mg/l, 24 h circulation, 35° C.) was “B (biofouling index <6)”, the Biofouling index ([2]; sodium hypochlorite 2.8 mg/l, total chloramines 0.94 mg/l, 24 h circulation, 35° C.) was “B (biofouling index <6)” and the Biofouling index ([2]; sodium hypochlorite 2.8 mg/l, total chloramines 1.0 mg/l, 24 h circulation, 35° C.) was “B (biofouling index <6)”. The Biofouling index ([2]; sodium hypochlorite 4.2 mg/l, total chloramines 1.42 mg/l, 24 h circulation, 35° C.) was “B (biofouling index <6)”, the Biofouling index ([2]; sodium hypochlorite 4.2 mg/l, total chloramines 1.48 mg/l, 24 h circulation, 35° C.) was “B (biofouling index <6)” and the Biofouling index ([2]; sodium hypochlorite 4.6 mg/l, total chloramines 1.63 mg/l, 24 h circulation, 35° C.) was “B (biofouling index <6)”. For the same molecule, the Biofouling index ([2]; sodium hypochlorite 5.6 mg/l, total chloramines 1.86 mg/l, 24 h circulation, 35° C.) was “B (biofouling index <6)”, the “Biofouling index (numerical, FIG. 4)” value ([2]; total chlorine concentration of 1.4 mg/L and more) was “close to zero” and the “Effect on normalized permeate flow” value ([3]; 4.2 mg/L hypochlorite, 320 hours, Stage I, Stage II and Stage III) was “no decrease in permeate flow”. The “Effect on biofouling on the membranes” value ([3]; treatment with hypochlorite, data not shown) was “reduced biofouling on the membranes”.
